Laboratory results from US20100249145A1, “Inhibitors of VEGF Receptor and HGF Receptor Signaling” (Methylgene, Inc., priority 2005, published 2010).
pIC50: −log10 of the molar value.

Key:
[1] = target: T1, recombinant human c-Met/HGF receptor (Homo sapiens, UniProt P08581); test: In vitro receptor tyrosine kinase assay (DELFIA), c-Met/HGF receptor; assay type: biochemical; details: Table 31; ATP 10 uM, enzyme 25 nM; read-out: CMet ic50
T1 construct: His tag (histidine tag from pBlueBacHis2A); made in house; host or cells: Hi-5 cells (Trichoplusia ni), recombinant baculovirus

A549 = A549 wound healing inhibition (HGF dependent migration); assay type: cell-based; details: Homo sapiens, Table 31, read-out: A549 wound healing inbib IC50
Description: (§1) HGF has well known activity in terms of inducing scattering and migration (wound healing) (Wells et al., Cell Motil Cytoskeleton. 2005 November 62(3):180-94; Miura et al., Urology 2001 December 58(6):1064-9; Nishimura et al., Int J. Urol. 1998 May 5(3):276-81; Wang et al., Mol Cancer Ther. 2003 November; 2(11):1085-92; and Christensen et al., Cancer Res. 2003 Nov. 1; 63(21):7345-55).

VEGF receptor KDR = target: T2, VEGF receptor KDR (Homo sapiens, UniProt P35968); test: In vitro receptor tyrosine kinase assay (DELFIA), VEGF receptor KDR; assay type: biochemical; details: Table 31; ATP 0.6 uM, enzyme 5 nM; read-out: VEGFR IC50
T2 construct: made in house; host or cells: Sf9 cells (Spodoptera frugiperda), recombinant baculovirus
Description: In Vitro Receptor Tyrosine Kinase Assays (c-Met/HGF receptor and VEGF Receptor KDR)
In the case of VEGF receptor KDR a 1.6-kb cDNA corresponding to the catalytic domain of VEGFR2 or KDR (Genbank accession number AF035121 amino acid 806 to 1356) was cloned into the Pst I site of the pDEST20 Gateway vector (Invitrogen) for the production of a GST-tagged version of that enzyme.
The GST-VEGFR2806-1356 protein was expressed in Sf9 cells (Spodoptera frugiperda) upon infection with recombinant baculovirus construct.
The supernatant was loaded onto a GST-agarose column (Sigma) equilibrated with PBS pH 7.3. Following a four column volume (CV) wash with PBS pH 7.3+1% Triton X-100 and 4 CV wash with buffer B (50 mM Tris pH 8.0, 20% glycerol and 100 mM NaCl), bound proteins were step eluted with 5 CV of buffer B supplemented with 5 mM DTT and 15 mM glutathion. […] Final GST-VEGFR2806-1356 protein preparations concentrations were about 0.7 mg/ml with purity approximating 70%.

DU145 = DU145 scattering inhibition (HGF dependent scattering); assay type: cell-based; details: Homo sapiens, DU-145, Table 31, read-out: DU145 scattering inhib IC50
Description: as §1

T2 sequence (P35968 806-1356): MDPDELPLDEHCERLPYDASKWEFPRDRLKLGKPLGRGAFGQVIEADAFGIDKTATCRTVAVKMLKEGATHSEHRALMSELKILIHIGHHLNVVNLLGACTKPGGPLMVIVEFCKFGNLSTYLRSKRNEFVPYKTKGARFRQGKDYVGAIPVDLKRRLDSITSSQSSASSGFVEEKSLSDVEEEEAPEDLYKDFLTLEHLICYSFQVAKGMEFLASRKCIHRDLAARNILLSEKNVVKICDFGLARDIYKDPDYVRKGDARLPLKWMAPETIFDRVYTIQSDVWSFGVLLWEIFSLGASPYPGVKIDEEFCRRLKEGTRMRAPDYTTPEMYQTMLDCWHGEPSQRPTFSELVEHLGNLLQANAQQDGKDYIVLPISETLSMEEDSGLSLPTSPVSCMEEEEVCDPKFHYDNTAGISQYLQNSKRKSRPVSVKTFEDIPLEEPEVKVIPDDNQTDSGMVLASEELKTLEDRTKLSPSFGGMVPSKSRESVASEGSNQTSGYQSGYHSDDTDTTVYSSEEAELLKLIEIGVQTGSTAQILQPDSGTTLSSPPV
T1 sequence (P08581 1078-1337): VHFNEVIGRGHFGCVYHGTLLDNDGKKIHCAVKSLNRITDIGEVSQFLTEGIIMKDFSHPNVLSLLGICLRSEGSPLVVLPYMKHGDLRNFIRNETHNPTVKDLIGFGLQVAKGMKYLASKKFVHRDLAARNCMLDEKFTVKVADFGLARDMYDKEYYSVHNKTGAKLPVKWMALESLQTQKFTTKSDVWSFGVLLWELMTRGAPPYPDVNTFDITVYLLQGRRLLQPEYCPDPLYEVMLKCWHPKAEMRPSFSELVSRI

Structure (SMILES)	pIC50 [1]	pIC50 (A549)	pIC50 (VEGF receptor KDR)	pIC50 (DU145)
COc1ccccc1CC(=O)NC(=S)Nc1ccc(Oc2ccnc3cc(-c4cn(CC(N)=O)cn4)sc23)c(F)c1	6.60 to 7.30	< 5.00	6.60 to 7.30	5.30 to 6.00
COc1cccc(Nc2cc3nccc(Oc4ccc(NC(=S)NC(=O)Cc5ccccc5OC)cc4F)c3s2)c1	6.60 to 7.30	5.30 to 6.00	< 6.30	5.30 to 6.00
Cn1ccnc1-c1cc2nccc(Oc3ccc(NC(=S)NC(=O)Cc4ccc(F)cc4)cc3F)c2s1	> 7.30	> 6.00	> 7.30	> 6.00
Cc1ccccc1CC(=O)NC(=S)Nc1ccc(Oc2ccnc3cc(-c4nccn4C)sc23)c(F)c1	> 7.30	> 6.00	> 7.30	> 6.00
Cc1ccccc1CC(=O)NC(=S)Nc1ccc(Oc2ccnc3cc(C4=CCN(C)CC4)sc23)c(F)c1	> 7.30	> 6.00	6.30 to 6.60	> 6.00
O=C(Cc1ccccc1)NC(=S)Nc1ccc(Oc2ccnc3cc(-c4cccc[n+]4[O-])sc23)c(F)c1	> 7.30	> 6.00	6.60 to 7.30	> 6.00
CN1CCN(Cc2ccc(-c3cc4nccc(Oc5ccc(NC(=S)NC(=O)Cc6ccc(F)cc6)cc5F)c4s3)cc2)CC1	> 7.30	> 6.00	> 7.30	> 6.00
C#Cc1ccccc1CC(=O)NC(=S)Nc1ccc(Oc2ccnc3cc(-c4nccn4CC)sc23)c(F)c1	> 7.30	> 6.00	> 7.30	> 6.00
C#Cc1ccc(CC(=O)NC(=S)Nc2ccc(Oc3ccnc4cc(-c5nccn5C)sc34)c(F)c2)cc1	6.60 to 7.30	5.30 to 6.00	6.60 to 7.30	< 5.00
C#Cc1ccccc1CC(=O)NC(=S)Nc1ccc(Oc2ccnc3cc(-c4nccn4C)sc23)c(F)c1	> 7.30	> 6.00	> 7.30	> 6.00
C#Cc1ccccc1CC(=O)NC(=S)Nc1ccc(Oc2ccnc3cc(-c4cn(CCN5CCCC5)cn4)sc23)c(F)c1	> 7.30	> 6.00	> 7.30	> 6.00
C#Cc1ccccc1CC(=O)NC(=S)Nc1ccc(Oc2ccnc3cc(C4=CCN(C)CC4)sc23)c(F)c1	> 7.30	> 6.00	6.60 to 7.30	> 6.00
C#Cc1ccc(CC(=O)NC(=S)Nc2ccc(Oc3ccnc4cc(-c5cn(CC)cn5)sc34)c(F)c2)cc1	6.60 to 7.30	5.30 to 6.00	> 7.30	5.30 to 6.00
C#Cc1ccc(CC(=O)NC(=S)Nc2ccc(Oc3ccnc4cc(-c5ccc(CN(C)CCO)cc5)sc34)c(F)c2)cc1	6.60 to 7.30	< 5.00	> 7.30	< 5.00
CCn1cnc(-c2cc3nccc(Oc4ccc(NC(=S)NC(=O)Cc5cccc(F)c5)cc4F)c3s2)c1	> 7.30	> 6.00	> 7.30	> 6.00
Cn1cnc(-c2cc3nccc(Oc4ccc(NC(=S)NC(=O)Cc5cccc(F)c5)cc4F)c3s2)c1	> 7.30	> 6.00	6.60 to 7.30	> 6.00
Cn1cnc(-c2cc3nccc(Oc4ccc(NC(=S)NC(=O)Cc5ccc(F)cc5F)cc4F)c3s2)c1 [drawing 434]	> 7.30	> 6.00	> 7.30	> 6.00
Cn1cnc(-c2cc3nccc(Oc4ccc(NC(=S)NC(=O)Cc5ccc(F)cc5)cc4F)c3s2)c1 [drawing 440]	> 7.30	> 6.00	> 7.30	> 6.00
CCn1cnc(-c2cc3nccc(Oc4ccc(NC(=S)NC(=O)Cc5ccccc5C)cc4F)c3s2)c1 [drawing 441]	> 7.30	> 6.00	> 7.30	> 6.00
C#Cc1ccccc1CC(=O)NC(=S)Nc1ccc(Oc2ccnc3cc(-c4cn(C)cn4)sc23)c(F)c1 [drawing 451]	> 7.30	> 6.00	> 7.30	> 6.00
C#Cc1ccccc1CC(=O)NC(=S)Nc1ccc(Oc2ccnc3cc(-c4cn(CC)cn4)sc23)c(F)c1 [drawing 455]	> 7.30	> 6.00	> 7.30	> 6.00

Second part, the molecule after the results:

pIC50 [1]	pIC50 (A549)	pIC50 (VEGF receptor KDR)	pIC50 (DU145)	Structure (SMILES)
> 7.30	> 6.00	< 6.30	> 6.00	CN(c1ccc(NC(=S)NC(=O)Cc2ccccc2)cc1F)c1ccnc2cc(-c3cn(C)cn3)sc12
> 7.30	> 6.00	> 7.30	> 6.00	CN1CCN(Cc2ccc(-c3cc4nccc(Oc5ccc(NC(=S)NC(=O)Cc6ccccc6)cc5F)c4s3)nc2)CC1
> 7.30	5.00 to 5.30	> 7.30	> 6.00	O=C(Cc1ccccc1)NC(=S)Nc1ccc(Oc2ccnc3cc(-c4cn(CCN5CCCC5)cn4)sc23)c(F)c1
> 7.30	> 6.00	> 7.30	> 6.00	CN(CCO)Cc1ccc(-c2cc3nccc(Oc4ccc(NC(=S)NC(=O)Cc5ccccc5)cc4F)c3s2)cc1
> 7.30	> 6.00	> 7.30	> 6.00	CN1CCN(Cc2ccc(-c3cc4nccc(Oc5ccc(NC(=S)NC(=O)Cc6ccccc6)cc5F)c4s3)cc2)CC1
> 7.30	> 6.00	< 6.30	> 6.00	Cn1ccnc1-c1cc2nccc(Sc3ccc(NC(=S)NC(=O)Cc4ccccc4)cc3)c2s1
> 7.30	> 6.00	6.30 to 6.60	> 6.00	CN1CC=C(c2cc3nccc(Oc4ccc(NC(=S)NC(=O)Cc5ccccc5)cc4F)c3s2)CC1
> 7.30	5.30 to 6.00	> 7.30	> 6.00	O=C(Cc1ccccc1)NC(=S)Nc1ccc(Oc2ccnc3cc(-c4ccc(CN5CCNCC5)cc4)sc23)c(F)c1
> 7.30	> 6.00	> 7.30	> 6.00	CCNC(=O)N1CCN(Cc2ccc(-c3cc4nccc(Oc5ccc(NC(=S)NC(=O)Cc6ccccc6)cc5F)c4s3)cc2)CC1
> 7.30	5.30 to 6.00	> 7.30	> 6.00	CCn1cnc(-c2cc3nccc(Oc4ccc(NC(=S)NC(=O)Cc5ccc(F)cc5F)cc4F)c3s2)c1
> 7.30	> 6.00	6.30 to 6.60	> 6.00	CN1CC=C(c2cc3nccc(Oc4ccc(NC(=S)NC(=O)Cc5ccc(F)cc5)cc4F)c3s2)CC1
> 7.30	> 6.00	> 7.30	> 6.00	CCn1cnc(-c2cc3nccc(Oc4ccc(NC(=S)NC(=O)Cc5ccc(F)cc5)cc4F)c3s2)c1
> 7.30	> 6.00	> 7.30	> 6.00	O=C(Cc1ccccc1)NC(=S)Nc1ccc(Oc2ccnc3cc(-c4ccc(CN5CCCC5)cn4)sc23)c(F)c1
> 7.30	> 6.00	6.60 to 7.30	> 6.00	CCn1ccnc1-c1cc2nccc(Oc3ccc(NC(=S)NC(=O)Cc4ccc(F)cc4F)cc3F)c2s1
> 7.30	> 6.00	> 7.30	> 6.00	Cn1ccnc1-c1cc2nccc(Oc3ccc(NC(=S)NC(=O)Cc4ccc(F)cc4F)cc3F)c2s1
> 7.30	> 6.00	> 7.30	> 6.00	CCn1ccnc1-c1cc2nccc(Oc3ccc(NC(=S)NC(=O)Cc4ccc(F)cc4)cc3F)c2s1
